Measured values published in ChEMBL document CHEMBL3885861, “Open TG-GATES”.

Organism: Rattus norvegicus
Assay: Open TG-GATES - Regimen: Daily Repeat
Format: toxicity, organism-based, Sprague-Dawley
Set-up: regimen Daily Repeat, gender Male, age 6 weeks
Settings: in vivo, po, route gavage; for APTT / Bas / Eos / Fbg / Hb / Ht / Lym / MCH / MCHC / MCV / Mono / Neu / PT / Plat / RBC / Ret / WBC: tissue Blood; for KIDNEY_L / KIDNEY_R / KIDNEY_TOTAL: tissue Kidney; for LIVER: tissue Liver; for A/G / ALP / ALT / AST / BUN / CRE / Ca / Cl / DBIL / GLC / IP / K / LDH / Na / PL / RALB / TBIL / TC / TG / TP / gamma-GTP: tissue Plasma
[1] = 15 mg/kg, 72 h, dose level Middle, time 3 day
[2] = 15 mg/kg, […], dose level Middle, time 7 day
[3] = 15 mg/kg, […], dose level Middle, time 14 day
[4] = 15 mg/kg, […], dose level Middle, time 28 day
[5] = 50 mg/kg, 72 h, dose level High, time 3 day
[6] = 50 mg/kg, […], dose level High, time 7 day
[7] = 50 mg/kg, […], dose level High, time 14 day
[8] = 50 mg/kg, […], dose level High, time 28 day

## CC1=C(CC(=O)O)c2cc(F)ccc2/C1=C\c1ccc([S+](C)[O-])cc1 (centres undefined)
[1]
  TERMINAL_BW: 235.3 g
  APTT: 17.2 s
  Bas: 0%
  Eos: 1%
  Fbg: 309 mg/dL
  Hb: 14.2 g/dL
  Ht: 43%
  Lym: 75.8%
  MCH: 21.2 pg
  MCHC: 33%
  MCV: 64.3 fL
  Mono: 2.6%
  Neu: 20%
  PT: 13.7 s
  Plat: 120.1 x10_4/uL
  RBC: 671.2 x10_4/ul
  Ret: 7.1%
  WBC: 90 x10_2/uL
  KIDNEY_L: 1 g
  KIDNEY_R: 1 g
  KIDNEY_TOTAL: 2 g
  LIVER: 11.3 g
  A/G: 0.9
  ALP: 1549.6 IU/L
  ALT: 44.2 IU/L
  AST: 72.4 IU/L
  BUN: 15.8 mg/dL
  CRE: 0.2 mg/dL
  Ca: 11.1 mg/dL
  Cl: 106 meq/L
  DBIL: 0.012 mg/dL
  GLC: 185.2 mg/dL
  IP: 7.3 mg/dL
  K: 4 meq/L
  LDH: 93.8 IU/L
  Na: 142.8 meq/L
  PL: 159 mg/dL
  RALB: 2.7 g/dL
  TBIL: 0.018 mg/dL
  TC: 85.2 mg/dL
  TG: 98.6 mg/dL
  TP: 5.6 g/dL
  gamma-GTP: 1 IU/L
[2]
  TERMINAL_BW: 268.9 g
  APTT: 17.1 s
  Bas: 0%
  Eos: 1%
  Fbg: 295.2 mg/dL
  Hb: 14.4 g/dL
  Ht: 42.6%
  Lym: 77.6%
  MCH: 21.2 pg
  MCHC: 33.8%
  MCV: 62.6 fL
  Mono: 2.4%
  Neu: 18.8%
  PT: 13.5 s
  Plat: 137.1 x10_4/uL
  RBC: 681.2 x10_4/ul
  Ret: 6.1%
  WBC: 102.7 x10_2/uL
  KIDNEY_L: 1.2 g
  KIDNEY_R: 1.1 g
  KIDNEY_TOTAL: 2.3 g
  LIVER: 12.6 g
  A/G: 0.9
  ALP: 1603.8 IU/L
  ALT: 41.2 IU/L
  AST: 66.8 IU/L
  BUN: 17.2 mg/dL
  CRE: 0.2 mg/dL
  Ca: 11 mg/dL
  Cl: 104 meq/L
  DBIL: 0.016 mg/dL
  GLC: 183 mg/dL
  IP: 7.3 mg/dL
  K: 4.3 meq/L
  LDH: 87.4 IU/L
  Na: 141 meq/L
  PL: 187.6 mg/dL
  RALB: 2.8 g/dL
  TBIL: 0.016 mg/dL
  TC: 91.6 mg/dL
  TG: 171.6 mg/dL
  TP: 5.9 g/dL
  gamma-GTP: 1 IU/L
[3]
  TERMINAL_BW: 338.3 g
  APTT: 18 s
  Bas: 0%
  Eos: 1%
  Fbg: 325.2 mg/dL
  Hb: 14.6 g/dL
  Ht: 42.9%
  Lym: 73.2%
  MCH: 20.5 pg
  MCHC: 34.1%
  MCV: 60 fL
  Mono: 2.2%
  Neu: 23%
  PT: 13.7 s
  Plat: 131.8 x10_4/uL
  RBC: 715.4 x10_4/ul
  Ret: 4.6%
  WBC: 104.2 x10_2/uL
  KIDNEY_L: 1.3 g
  KIDNEY_R: 1.2 g
  KIDNEY_TOTAL: 2.5 g
  LIVER: 15.2 g
  A/G: 0.9
  ALP: 1475.4 IU/L
  ALT: 42.6 IU/L
  AST: 65.6 IU/L
  BUN: 17.4 mg/dL
  CRE: 0.3 mg/dL
  Ca: 10.9 mg/dL
  Cl: 105.6 meq/L
  DBIL: 0.018 mg/dL
  GLC: 183 mg/dL
  IP: 6.8 mg/dL
  K: 3.8 meq/L
  LDH: 75.4 IU/L
  Na: 143.4 meq/L
  PL: 173.4 mg/dL
  RALB: 2.8 g/dL
  TBIL: 0.042 mg/dL
  TC: 81.4 mg/dL
  TG: 191 mg/dL
  TP: 6 g/dL
  gamma-GTP: 1 IU/L
[4]
  TERMINAL_BW: 411.4 g
  APTT: 20.6 s
  Bas: 0%
  Eos: 0.8%
  Fbg: 263.6 mg/dL
  Hb: 14.9 g/dL
  Ht: 45.8%
  Lym: 76%
  MCH: 18.9 pg
  MCHC: 32.6%
  MCV: 58 fL
  Mono: 2%
  Neu: 20.8%
  PT: 12.6 s
  Plat: 111.8 x10_4/uL
  RBC: 792.6 x10_4/ul
  Ret: 3.7%
  WBC: 112.4 x10_2/uL
  KIDNEY_L: 1.4 g
  KIDNEY_R: 1.4 g
  KIDNEY_TOTAL: 2.8 g
  LIVER: 17.1 g
  A/G: 0.8
  ALP: 1137.2 IU/L
  ALT: 35.8 IU/L
  AST: 62 IU/L
  BUN: 18.2 mg/dL
  CRE: 0.3 mg/dL
  Ca: 10.7 mg/dL
  Cl: 103.8 meq/L
  DBIL: 0.008 mg/dL
  GLC: 178.4 mg/dL
  IP: 6.9 mg/dL
  K: 3.8 meq/L
  LDH: 64.6 IU/L
  Na: 142.8 meq/L
  PL: 153.4 mg/dL
  RALB: 2.8 g/dL
  TBIL: 0.076 mg/dL
  TC: 74.8 mg/dL
  TG: 162.8 mg/dL
  TP: 6.2 g/dL
  gamma-GTP: 1 IU/L
[5]
  TERMINAL_BW: 223.6 g
  APTT: 18.5 s
  Bas: 0.2%
  Eos: 1.2%
  Fbg: 396.2 mg/dL
  Hb: 13.9 g/dL
  Ht: 41.6%
  Lym: 71.2%
  MCH: 20.7 pg
  MCHC: 33.3%
  MCV: 62.3 fL
  Mono: 3.4%
  Neu: 24%
  PT: 13.3 s
  Plat: 112.6 x10_4/uL
  RBC: 668 x10_4/ul
  Ret: 6%
  WBC: 137.2 x10_2/uL
  KIDNEY_L: 1 g
  KIDNEY_R: 1 g
  KIDNEY_TOTAL: 2 g
  LIVER: 11 g
  A/G: 0.9
  ALP: 1504.6 IU/L
  ALT: 38.2 IU/L
  AST: 63 IU/L
  BUN: 15.6 mg/dL
  CRE: 0.2 mg/dL
  Ca: 11 mg/dL
  Cl: 106.8 meq/L
  DBIL: 0.008 mg/dL
  GLC: 178.4 mg/dL
  IP: 6.5 mg/dL
  K: 4.2 meq/L
  LDH: 96.4 IU/L
  Na: 141.8 meq/L
  PL: 164.4 mg/dL
  RALB: 2.6 g/dL
  TBIL: 0.016 mg/dL
  TC: 91.2 mg/dL
  TG: 129.8 mg/dL
  TP: 5.4 g/dL
  gamma-GTP: 1.2 IU/L
[6]
  TERMINAL_BW: 211.2 g
  APTT: 16.7 s
  Bas: 0.6%
  Eos: 1.2%
  Fbg: 522.6 mg/dL
  Hb: 11.5 g/dL
  Ht: 35.1%
  Lym: 55%
  MCH: 20.8 pg
  MCHC: 32.8%
  MCV: 63.4 fL
  Mono: 3.8%
  Neu: 38.8%
  PT: 13 s
  Plat: 252.7 x10_4/uL
  RBC: 553.6 x10_4/ul
  Ret: 11.8%
  WBC: 207.1 x10_2/uL
  KIDNEY_L: 1 g
  KIDNEY_R: 1 g
  KIDNEY_TOTAL: 2 g
  LIVER: 10.6 g
  A/G: 0.9
  ALP: 1360.6 IU/L
  ALT: 24.4 IU/L
  AST: 64 IU/L
  BUN: 39.8 mg/dL
  CRE: 0.3 mg/dL
  Ca: 10.6 mg/dL
  Cl: 104 meq/L
  DBIL: 0.032 mg/dL
  GLC: 154.2 mg/dL
  IP: 7.5 mg/dL
  K: 4.3 meq/L
  LDH: 96.8 IU/L
  Na: 141 meq/L
  PL: 157.6 mg/dL
  RALB: 2.4 g/dL
  TBIL: 0.066 mg/dL
  TC: 78.8 mg/dL
  TG: 104.2 mg/dL
  TP: 5.1 g/dL
  gamma-GTP: 5 IU/L
[7]
  TERMINAL_BW: 263.8 g
  APTT: 25.1 s
  Bas: 0%
  Eos: 1.7%
  Fbg: 447 mg/dL
  Hb: 10.8 g/dL
  Ht: 33.6%
  Lym: 56%
  MCH: 20.6 pg
  MCHC: 31.6%
  MCV: 65.2 fL
  Mono: 4%
  Neu: 37%
  PT: 13.3 s
  Plat: 243.4 x10_4/uL
  RBC: 517.7 x10_4/ul
  Ret: 16.3%
  WBC: 216.8 x10_2/uL
  KIDNEY_L: 1.1 g
  KIDNEY_R: 1.1 g
  KIDNEY_TOTAL: 2.2 g
  LIVER: 13.4 g
  A/G: 0.9
  ALP: 806 IU/L
  ALT: 28.7 IU/L
  AST: 49.3 IU/L
  BUN: 18.3 mg/dL
  CRE: 0.3 mg/dL
  Ca: 10.5 mg/dL
  Cl: 106.3 meq/L
  DBIL: 0.0133 mg/dL
  GLC: 156.3 mg/dL
  IP: 5.3 mg/dL
  K: 4.5 meq/L
  LDH: 74 IU/L
  Na: 141.7 meq/L
  PL: 203 mg/dL
  RALB: 2.5 g/dL
  TBIL: 0.03 mg/dL
  TC: 96.7 mg/dL
  TG: 326.7 mg/dL
  TP: 5.4 g/dL
  gamma-GTP: 1.7 IU/L
[8]
  TERMINAL_BW: 295.9 g
  APTT: 18.9 s
  Bas: 0%
  Eos: 1.7%
  Fbg: 577 mg/dL
  Hb: 10.2 g/dL
  Ht: 34.4%
  Lym: 51.7%
  MCH: 18.1 pg
  MCHC: 29.3%
  MCV: 61.7 fL
  Mono: 4.7%
  Neu: 41%
  PT: 11.9 s
  Plat: 221.3 x10_4/uL
  RBC: 561.3 x10_4/ul
  Ret: 16.6%
  WBC: 217.4 x10_2/uL
  KIDNEY_L: 1.3 g
  KIDNEY_R: 1.2 g
  KIDNEY_TOTAL: 2.5 g
  LIVER: 15.2 g
  A/G: 0.8
  ALP: 657 IU/L
  ALT: 23.3 IU/L
  AST: 47.3 IU/L
  BUN: 18.3 mg/dL
  CRE: 0.3 mg/dL
  Ca: 10 mg/dL
  Cl: 103 meq/L
  DBIL: 0.0067 mg/dL
  GLC: 149.3 mg/dL
  IP: 7 mg/dL
  K: 3.8 meq/L
  LDH: 92 IU/L
  Na: 141.7 meq/L
  PL: 181.7 mg/dL
  RALB: 2.3 g/dL
  TBIL: 0.06 mg/dL
  TC: 88.7 mg/dL
  TG: 261.7 mg/dL
  TP: 5.1 g/dL
  gamma-GTP: 1.7 IU/L
